# Literature values as cited in patent US8607989B2, “Filter composites for drug detoxification” (Vascular Vision Pharmaceutical Co., priority 2009, dated 2013).
# Tested on: breast, colon, and gastric cancer; renal cell carcinoma; and sarcoma
smiles,measurement,value
O=C1[O][Pt]2([NH][C@@H]3CCCC[C@H]3[NH]2)[O]C1=O [Oxaliplatin],activity in in vivo studies,active
